Where two headings read alike, the source gives them in different places.
Tests used:
advanced malignancies = conditions: phase I, cited from earlier work
[1] = tested on: previously treated patients with SCLC; conditions: phase II, ref Stephenson et al, 2014; cited from earlier work
[2] = tested on: patients with advanced malignancies; assay: Tumour response; assay type: in vivo, human
[3] = tested on: cell-cycle CDKs 1, 2, 4, and 6 and transcriptional CDKs 7 and 9; conditions: cited from earlier work
xenograft mouse models = conditions: ref Siemeister et al, 2012; cited from earlier work
[4] = tested on: patients with advanced malignancies; assay: Tumour response; assay type: in vivo, human; conditions: 10 patients
human cancer cell lines = conditions: large panel of human cancer cell lines; ref Siemeister et al, 2012; cited from earlier work
[5] = tested on: proliferating cell nuclear antigen (PCNA); assay: PCNA RNA expression in whole blood; assay type: in vivo, human; conditions: for Difference of mean ΔCT values from baseline (ΔΔCT), PCNA: 6 h post dose, whole blood
[6] = 104 patients with solid tumours
[7] = seven patients, lymphoid malignancy dose-escalation cohorts

Molecule: CCc1cnn2c(NCc3ccc[n+]([O-])c3)cc(N3CCCC[C@H]3CCO)nc12 [dinaciclib]
- Disease control rate (DCR) (advanced malignancies; ref Nemunaitis et al, 2013): 20.8%
- Objective responses [1]: no objective responses

Molecule: CC(=O)c1c(C)c2cnc(Nc3ccc(N4CCNCC4)cn3)nc2n(C2CCCC2)c1=O [palbociclib]
- Disease control rate (DCR) (advanced malignancies; ref Flaherty et al, 2012): 27%

Molecule: roniciclib
- Disease control rate (DCR) ([2]; 5 mg BID, solid tumours bearing a CDK-related tumour mutation (n=6)): 33.3%
- Complete response [2, 6]: none
- Disease control rate (DCR) [2, 6]: 32.7%
- Partial response [2, 6]: 1.0%
- Radiological progressive disease [2, 6]: 38.5%
- Response rate [2, 6]: 1.0%
- Stable disease [2, 6]: 31.7%
- Disease control rate (DCR) ([2]; lymphoid malignancy dose-escalation cohorts): 42.9%
- Complete or partial response [2, 7]: none
- Stable disease, patients [2, 7]: three
- Activity against CDKs [3]: low nanomolar activity
- Tumour growth inhibition (xenograft mouse models): strongly inhibited tumour growth in a dose-dependent manner
- Complete or partial response [4]: No patients
- Stable disease, patients [4]: five
- Anti-proliferative activity (human cancer cell lines): broad-spectrum anti-proliferative activity
- PCNA expression in peripheral whole blood (fold-change from baseline) ([5]; 6 h post dose on cycle 1, day 1, ovarian cancer and SCLC patients): significantly inhibited expression of PCNA
- Difference of mean ΔCT values from baseline (ΔΔCT), PCNA ([5]; Ovarian cancer cohort, Cycle 1, day 1): 1.720
- Difference of mean ΔCT values from baseline (ΔΔCT), PCNA ([5]; Ovarian cancer cohort, Cycle 1, day 10): 0.521
- Difference of mean ΔCT values from baseline (ΔΔCT), PCNA ([5]; SCLC cohort, Cycle 1, day 1): 1.006
- Difference of mean ΔCT values from baseline (ΔΔCT), PCNA ([5]; SCLC cohort, Cycle 1, day 10): 0.224
